Test results taken from patent US12043632B2, “6-heteroaryloxy benzimidazoles and azabenzimidazoles as JAK2 inhibitors” (Ajax Therapeutics, Inc., priority 2020, dated 2024).

Biological target: T1, JAK2 (JH1domain-catalytic, Y1007F,Y1008F) kinase (Homo sapiens, UniProt O60674, Y1007F/Y1008F)
T1 construct: JAK2 (JH1domain-catalytic, Y1007F,Y1008F) kinase was expressed as N-terminal fusion; made in house; host or cells: transiently transfected HEK293 cells
Test: JAK2 JH1 Domain Binding Assay
Conditions: qPCR readout

T1 sequence (O60674 849-1124 Y1007F/Y1008F limits assumed): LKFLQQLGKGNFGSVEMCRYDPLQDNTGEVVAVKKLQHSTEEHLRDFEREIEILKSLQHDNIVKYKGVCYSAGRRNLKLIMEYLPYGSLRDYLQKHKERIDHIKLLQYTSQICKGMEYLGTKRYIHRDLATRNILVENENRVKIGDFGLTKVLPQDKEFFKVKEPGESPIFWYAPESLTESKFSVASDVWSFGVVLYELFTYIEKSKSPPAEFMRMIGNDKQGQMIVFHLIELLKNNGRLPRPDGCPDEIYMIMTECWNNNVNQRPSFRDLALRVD

Structure (SMILES)	Kd
Cn1c(Nc2cc(C(F)(F)F)cn(CCO)c2=O)nc2ncc(Oc3cnn4ccccc34)c(Cl)c21 [Example I-103, 3-((7-chloro-1-methyl-6-(pyrazolo[1,5-a]pyridin-3-yloxy)-1H-imidazo[4,5-b]pyridin-2-yl)amino)-1-(2-hydroxyethyl)-5-(trifluoromethyl)pyridin-2(1H)-one]	< 10 nM
COc1c(Oc2cnn3ccncc23)cnc2nc(Nc3cc(C4CC4)cn(CC(C)(C)OC)c3=O)n(C)c12 [Example I-106, 5-cyclopropyl-3-((7-methoxy-1-methyl-6-(pyrazolo[1,5-a]pyrazin-3-yloxy)-1H-imidazo[4,5-b]pyridin-2-yl)amino)-1-(2-methoxy-2-methylpropyl)pyridin-2(1H)-one]	10 to 50 nM
Cn1c(Nc2cc(C3CC3)cn(-c3cccnc3)c2=O)nc2ncc(Oc3cnn4ccncc34)c(Cl)c21 [Example I-108, 3-((7-chloro-1-methyl-6-(pyrazolo[1,5-a]pyrazin-3-yloxy)-1H-imidazo[4,5-b]pyridin-2-yl)amino)-5-cyclopropyl-2H-[1,3′-bipyridin]-2-one]	< 10 nM
Cn1c(Nc2cc(C(F)(F)F)cn(-c3cccnc3)c2=O)nc2ncc(Oc3cnn4ccncc34)c(Cl)c21 [Example I-109, 3-((7-chloro-1-methyl-6-(pyrazolo[1,5-a]pyrazin-3-yloxy)-1H-imidazo[4,5-b]pyridin-2-yl)amino)-5-(trifluoromethyl)-2H-[1,3′-bipyridin]-2-one]	< 10 nM
Cn1cc(-n2cc(C3CC3)cc(Nc3nc4ncc(Oc5cnn6ccccc56)c(Cl)c4n3C)c2=O)cn1 [Example I-115, 3-((7-chloro-1-methyl-6-(pyrazolo[1,5-a]pyridin-3-yloxy)-1H-imidazo[4,5-b]pyridin-2-yl)amino)-5-cyclopropyl-1-(1-methyl-1H-pyrazol-4-yl)pyridin-2(1H)-one]	< 10 nM
Cn1nc(C2CC2)cc(Nc2nc3ncc(Oc4cnn5ccccc45)c(Cl)c3n2C)c1=O [Example I-116, 4-((7-chloro-1-methyl-6-(pyrazolo[1,5-a]pyridin-3-yloxy)-1H-imidazo[4,5-b]pyridin-2-yl)amino)-6-cyclopropyl-2-methylpyridazin-3(2H)-one]	< 10 nM
Cn1c(Nc2cc(C(F)(F)F)cn(CCCN3CCC(F)(F)C3)c2=O)nc2ncc(Oc3cnn4ccncc34)c(Cl)c21 [Example I-118, 3-((7-chloro-1-methyl-6-(pyrazolo[1,5-a]pyrazin-3-yloxy)-1H-imidazo[4,5-b]pyridin-2-yl)amino)-1-(3-(3,3-difluoropyrrolidin-1-yl)propyl)-5-(trifluoromethyl)pyridin-2(1H)-one]	10 to 50 nM
COc1c(Oc2cnn3ccccc23)cnc2nc(Nc3cc(C4CC4)cn(CCCN4CCC(F)(F)C4)c3=O)n(C)c12 [Example I-123, 5-cyclopropyl-1-(3-(3,3-difluoropyrrolidin-1-yl)propyl)-3-((7-methoxy-1-methyl-6-(pyrazolo[1,5-a]pyridin-3-yloxy)-1H-imidazo[4,5-b]pyridin-2-yl)amino)pyridin-2(1H)-one]	10 to 50 nM
Cn1c(Nc2cc3n(n2)CCCC3(C)C)nc2ncc(Oc3cnn4ccnc(OCCO)c34)c(Cl)c21 [Example I-124, 2-((3-((7-chloro-2-((4,4-dimethyl-4,5,6,7-tetrahydropyrazolo[1,5-a]pyridin-2-yl)amino)-1-methyl-1H-imidazo[4,5-b]pyridin-6-yl)oxy)pyrazolo[1,5-a]pyrazin-4-yl)oxy)ethan-1-ol]	< 10 nM
CNc1nccn2ncc(Oc3cnc4nc(Nc5cc6n(n5)CCCC6(C)C)n(C)c4c3Cl)c12 [Example I-125, 7-chloro-N-(4,4-dimethyl-4,5,6,7-tetrahydropyrazolo[1,5-a]pyridin-2-yl)-1-methyl-6-((4-(methylamino)pyrazolo[1,5-a]pyrazin-3-yl)oxy)-1H-imidazo[4,5-b]pyridin-2-amine]	10 to 50 nM
Cn1cc(C(F)(F)F)cc(Nc2nc3ncc(Oc4cnn5ccnc(OCCN6CCOCC6)c45)c(Cl)c3n2C)c1=O [Example I-127, 3-((7-chloro-1-methyl-6-((4-(2-morpholinoethoxy)pyrazolo[1,5-a]pyrazin-3-yl)oxy)-1H-imidazo[4,5-b]pyridin-2-yl)amino)-1-methyl-5-(trifluoromethyl)pyridin-2(1H)-one]	10 to 50 nM
CNc1nccn2ncc(Oc3cnc4nc(Nc5cc(C(F)(F)F)cn(C)c5=O)n(C)c4c3Cl)c12 [Example I-128, 3-((7-chloro-1-methyl-6-((4-(methylamino)pyrazolo[1,5-a]pyrazin-3-yl)oxy)-1H-imidazo[4,5-b]pyridin-2-yl)amino)-1-methyl-5-(trifluoromethyl)pyridin-2(1H)-one]	< 10 nM
Cn1c(Nc2cc(C3CC3)cn(CCCN3CCCC(F)(F)C3)c2=O)nc2ncc(Oc3cnn4ccncc34)c(Cl)c21 [Example I-129, 3-((7-chloro-1-methyl-6-(pyrazolo[1,5-a]pyrazin-3-yloxy)-1H-imidazo[4,5-b]pyridin-2-yl)amino)-5-cyclopropyl-1-(3-(3,3-difluoropiperidin-1-yl)propyl)pyridin-2(1H)-one]	10 to 50 nM
CNc1nccn2ncc(Oc3cnc4nc(Nc5cc(C6CC6)cn(C)c5=O)n(C)c4c3Cl)c12 [Example I-134, 3-((7-chloro-1-methyl-6-((4-(methylamino)pyrazolo[1,5-a]pyrazin-3-yl)oxy)-1H-imidazo[4,5-b]pyridin-2-yl)amino)-5-cyclopropyl-1-methylpyridin-2(1H)-one]	< 10 nM
COCCOc1nccn2ncc(Oc3cnc4nc(Nc5cc(C6CC6)cn(C)c5=O)n(C)c4c3Cl)c12 [Example I-135, 3-((7-chloro-6-((4-(2-methoxyethoxy)pyrazolo[1,5-a]pyrazin-3-yl)oxy)-1-methyl-1H-imidazo[4,5-b]pyridin-2-yl)amino)-5-cyclopropyl-1-methylpyridin-2(1H)-one]	< 10 nM
Cn1cc(C2CC2)cc(Nc2nc3ncc(Oc4cnn5ccnc(OCCN6CCOCC6)c45)c(Cl)c3n2C)c1=O [Example I-136, 3-((7-chloro-1-methyl-6-((4-(2-morpholinoethoxy)pyrazolo[1,5-a]pyrazin-3-yl)oxy)-1H-imidazo[4,5-b]pyridin-2-yl)amino)-5-cyclopropyl-1-methylpyridin-2(1H)-one]	10 to 50 nM

Next, values leading:

Kd	Structure (SMILES)
< 10 nM	CN1CCN(CCn2cc(C3CC3)cc(Nc3nc4ncc(Oc5cnn6ccccc56)c(Cl)c4n3C)c2=O)CC1 [Example I-102, 3-((7-chloro-1-methyl-6-(pyrazolo[1,5-a]pyridin-3-yloxy)-1H-imidazo[4,5-b]pyridin-2-yl)amino)-5-cyclopropyl-1-(2-(4-methylpiperazin-1-yl)ethyl)pyridin-2(1H)-one]
< 10 nM	COc1c(Oc2cnn3ccccc23)cnc2nc(Nc3cc(C4CC4)cn([C@H]4C[C@H](O)C4)c3=O)n(C)c12 [Example I-111, trans-5-cyclopropyl-1-(3-hydroxycyclobutyl)-3-((7-methoxy-1-methyl-6-(pyrazolo[1,5-a]pyridin-3-yloxy)-1H-imidazo[4,5-b]pyridin-2-yl)amino)pyridin-2(1H)-one]
< 10 nM	COc1c(Oc2cnn3ccccc23)cnc2nc(Nc3cc(C4CC4)cn([C@H]4C[C@@H](O)C4)c3=O)n(C)c12 [Example I-112, cis-5-cyclopropyl-1-(3-hydroxycyclobutyl)-3-((7-methoxy-1-methyl-6-(pyrazolo[1,5-a]pyridin-3-yloxy)-1H-imidazo[4,5-b]pyridin-2-yl)amino)pyridin-2(1H)-one]
< 10 nM	Cn1c(Nc2cc(C3CC3)cn(CCCN3CCC(F)(F)C3)c2=O)nc2ncc(Oc3cnn4ccncc34)c(Cl)c21 [Example I-117, 3-((7-chloro-1-methyl-6-(pyrazolo[1,5-a]pyrazin-3-yloxy)-1H-imidazo[4,5-b]pyridin-2-yl)amino)-5-cyclopropyl-1-(3-(3,3-difluoropyrrolidin-1-yl)propyl)pyridin-2(1H)-one]
< 10 nM	CN1CCN(Cc2ccc(Nc3nc4ncc(Oc5cnn6ccncc56)c(Cl)c4n3C)cc2C(F)(F)F)CC1 [Example I-120, 7-chloro-1-methyl-N-(4-((4-methylpiperazin-1-yl)methyl)-3-(trifluoromethyl)phenyl)-6-(pyrazolo[1,5-a]pyrazin-3-yloxy)-1H-imidazo[4,5-b]pyridin-2-amine]
< 10 nM	Cn1c(Nc2cc(C3CC3)nn(CCO)c2=O)nc2ncc(Oc3cnn4ccccc34)c(Cl)c21 [Example I-126, 4-((7-chloro-1-methyl-6-(pyrazolo[1,5-a]pyridin-3-yloxy)-1H-imidazo[4,5-b]pyridin-2-yl)amino)-6-cyclopropyl-2-(2-hydroxyethyl)pyridazin-3(2H)-one]
10 to 50 nM	COc1c(Oc2cnc3cnc(C4CC4)n3c2)cnc2nc(Nc3cc(C(C)(C)C)n([C@H]4C[C@H](O)C4)n3)n(C)c12 [Example I-130, (1r,3r)-3-(5-(tert-butyl)-3-((6-((6-cyclopropylimidazo[1,5-a]pyrimidin-3-yl)oxy)-7-methoxy-1-methyl-1H-imidazo[4,5-b]pyridin-2-yl)amino)-1H-pyrazol-1-yl)cyclobutan-1-ol]
< 10 nM	Cn1c(Nc2cc(C3CC3)cn(CC#N)c2=O)nc2ncc(Oc3cnn4ccncc34)c(Cl)c21 [Example I-132, 2-(3-((7-chloro-1-methyl-6-(pyrazolo[1,5-a]pyrazin-3-yloxy)-1H-imidazo[4,5-b]pyridin-2-yl)amino)-5-cyclopropyl-2-oxopyridin-1(2H)-yl)acetonitrile]
10 to 50 nM	Cn1c(Nc2cc(C(C)(C)C)n([C@H]3CCOC3)n2)nc2ncc(Oc3cnn4ccncc34)c(C#N)c21 [Example I-137, (S)-2-((5-(tert-butyl)-1-(tetrahydrofuran-3-yl)-1H-pyrazol-3-yl)amino)-1-methyl-6-(pyrazolo[1,5-a]pyrazin-3-yloxy)-1H-imidazo[4,5-b]pyridine-7-carbonitrile]
10 to 50 nM	Cn1c(Nc2cc(C(F)(F)F)cn(CCCN3CCCC(F)(F)C3)c2=O)nc2ncc(Oc3cnn4ccncc34)c(Cl)c21 [Example I-138, 3-((7-chloro-1-methyl-6-(pyrazolo[1,5-a]pyrazin-3-yloxy)-1H-imidazo[4,5-b]pyridin-2-yl)amino)-1-(3-(3,3-difluoropiperidin-1-yl)propyl)-5-(trifluoromethyl)pyridin-2(1H)-one]
